Where “and” joins values, the source holds several entries; their conditions need not be identical. Equal entries are not always repeated.
Tests used:
[1] = test system: AsPC-1 cells; assay: DCFH-DA fluorometric ROS assay in AsPC-1 cells; type: cell-based, human; conditions: DCFH-DA 40 μM, 24 h
Method: (§1) To measure ROS, a traditional fluorometric assay using Dichlorofluorescein diacetate (DCFH-DA; Sigma Aldrich, USA) was performed. DCFH-DA is a cell-permeable non-fluorescent probe which is hydrolyzed by intracellular esterases, thereby trapping it within the cell. This non-fluorescent molecule can then be oxidized by ROS, which turns it into fluorescent dichlorofluorescein (DCF). The level of intracellular fluorescence is therefore proportional to the amount of intracellular ROS production with a linear dynamic range [12]. All experiments were performed in 12-well plates. A431 and AsPC-1 cells were seeded in 12-well culture plates achieving a cell density of 50,000, 100,000, 200,000 and 300,000 cells/well. Cells were incubated with DCFH-DA (40 μM, 200 μL) in DMEM-10% FBS-50 U/mL penicillin-50 μg/mL streptomycin culture medium at 37° C. in a humidified incubator containing 5% CO2/95% air for 24 h. The fluorescence from DCF was then measured using a microplate spectrophotometer system with […].

[2] = test system: A431 cells; assay: DCFH-DA fluorometric ROS assay in A431 cells; type: cell-based, human; conditions: DCFH-DA 40 μM, 24 h
Method: as §1

[3] = test system: AD-MSCs; assay: DCFH-DA fluorometric ROS assay in AD-MSCs; type: cell-based; conditions: 300,000 AD-MSCs

Dichlorofluorescein diacetate [DCFH-DA]
ROS production, DCFH-DA assay ([1]; 50,000 AsPC-1 cells): 0.15±0.04 absorbance units
ROS production, DCFH-DA assay ([1]; 100,000 AsPC-1 cells): 0.51±0.06 absorbance units
ROS production, DCFH-DA assay ([1]; 200,000 AsPC-1 cells): 0.82±0.05 absorbance units
ROS production, DCFH-DA assay ([2]; 50,000 A431 cells): 0.17±0.01 absorbance units
ROS production, DCFH-DA assay ([2]; 100,000 A431 cells): 0.49±0.01 absorbance units
ROS production, DCFH-DA assay ([2]; 200,000 A431 cells): 0.96±0.07 absorbance units
ROS production, DCFH-DA assay ([2]; 300,000 A431 cells): 1.06±0.05 absorbance units and 1.10±0.04 absorbance units
ROS production, DCFH-DA assay [3]: 1.06±0.05 absorbance units

— patent publication US12533429B2, “Surface enhanced raman scattering nanoparticles and their use in detecting and imaging oxidative stress” (The Board of Trustees of the Leland Stanford Junior …, priority 2019, dated 2026)
